Test results published in ChEMBL document CHEMBL3739343, “Identification and activity of inhibitors of the essential nematode-specific metalloprotease DPY-31” (Bioorg Med Chem Lett, 2015).
Activity calls are given as the source filed them. The rule behind the calls is not given here. Where a SMILES comes first, the peptide text is derived from it.

Columns and labels:
[1] = system: Teladorsagia circumcincta; test: Antiparasitic activity against Teladorsagia circumcincta L3 assessed as induction of Dpy phenotype at 500 uM after 3 days by microscopic analysis; format: functional, organism-based
[2] = target: T1, Zinc metalloproteinase dpy-31 (Brugia malayi, UniProt A8Q2D1); test: Inhibition of recombinant Brugia malayi DPY-31 astacin domain expressed in Escherichia coli using Suc-Ala-Ala-Ala-pNA as substrate preincubated for 3 hrs followed by substrate addition measured after 3 hrs by microplate reader assay
T1 sequence (A8Q2D1 whole entry): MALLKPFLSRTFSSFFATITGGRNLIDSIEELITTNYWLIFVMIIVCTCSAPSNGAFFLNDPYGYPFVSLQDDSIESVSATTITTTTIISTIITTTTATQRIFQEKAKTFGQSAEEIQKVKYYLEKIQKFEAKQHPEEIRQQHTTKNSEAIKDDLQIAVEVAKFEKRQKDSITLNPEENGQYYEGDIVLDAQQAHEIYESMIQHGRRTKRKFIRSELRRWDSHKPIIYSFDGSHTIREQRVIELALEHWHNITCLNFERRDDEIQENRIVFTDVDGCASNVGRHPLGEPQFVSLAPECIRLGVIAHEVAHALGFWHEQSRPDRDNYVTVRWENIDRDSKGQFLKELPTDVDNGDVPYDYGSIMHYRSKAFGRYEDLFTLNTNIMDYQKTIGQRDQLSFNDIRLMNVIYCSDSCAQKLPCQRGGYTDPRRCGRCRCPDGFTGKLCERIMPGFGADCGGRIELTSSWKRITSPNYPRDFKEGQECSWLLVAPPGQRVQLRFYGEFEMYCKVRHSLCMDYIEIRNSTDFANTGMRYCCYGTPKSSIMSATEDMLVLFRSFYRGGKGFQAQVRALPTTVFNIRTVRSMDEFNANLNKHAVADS

Caenorhabditis elegans [3] = test: Antiparasitic activity against wild type Caenorhabditis elegans N2 assessed as induction of Dpy phenotype at 50 uM measured after 3 days by microscopic analysis; format: functional, organism-based
[4] = target: T2, Zinc metalloproteinase dpy-31 (Teladorsagia circumcincta, UniProt A0A0C5PRQ1); test: Inhibition of recombinant Teladorsagia circumcincta DPY-31 astacin domain expressed in Escherichia coli using Suc-Ala-Ala-Ala-pNA as substrate preincubated for 3 hrs followed by substrate addition measured after 3 hrs by microplate reader assay
T2 sequence (A0A0C5PRQ1 whole entry): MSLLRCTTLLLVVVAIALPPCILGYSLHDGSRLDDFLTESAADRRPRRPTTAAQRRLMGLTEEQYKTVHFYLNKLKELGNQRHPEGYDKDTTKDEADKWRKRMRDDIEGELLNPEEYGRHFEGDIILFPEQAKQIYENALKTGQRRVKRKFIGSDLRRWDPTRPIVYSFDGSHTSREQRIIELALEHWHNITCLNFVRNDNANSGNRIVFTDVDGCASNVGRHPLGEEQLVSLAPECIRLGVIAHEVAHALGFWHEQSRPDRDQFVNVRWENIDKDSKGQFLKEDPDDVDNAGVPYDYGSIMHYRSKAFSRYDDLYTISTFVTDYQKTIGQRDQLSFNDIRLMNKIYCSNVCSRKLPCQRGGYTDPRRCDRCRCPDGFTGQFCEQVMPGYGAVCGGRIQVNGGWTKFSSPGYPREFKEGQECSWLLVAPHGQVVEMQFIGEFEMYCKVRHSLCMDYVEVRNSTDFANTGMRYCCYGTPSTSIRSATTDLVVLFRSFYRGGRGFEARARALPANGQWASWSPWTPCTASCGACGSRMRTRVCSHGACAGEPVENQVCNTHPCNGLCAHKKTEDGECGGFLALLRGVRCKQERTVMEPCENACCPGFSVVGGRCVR

Caenorhabditis elegans [5] = test: Antiparasitic activity against Teladorsagia circumcincta dpy-31 transgenically-rescued Caenorhabditis elegans dpy-31 mutant TP224 assessed as induction of Dpy phenotype at 100 uM after 3 days by microscopic analysis; format: functional, organism-based

Structure (SMILES) | Activity [1] | IC50 ([2]; read-out: pIC50 (converted)) | Activity (Caenorhabditis elegans [3]) | IC50 [4] | Activity (Caenorhabditis elegans [5]) | IC50 ([2]; read-out: IC50)
C[C@H](NC(=O)[C@@H]1CCCN1C(=O)OCC1c2ccccc2-c2ccccc21)C(=O)N[C@@H](Cc1ccccc1)C(=O)NO (HELM PEPTIDE1{[O=C(OCC1c2ccccc2-c2ccccc21)[*:2]].P.A.F.[ON[*:1]]}$$$$V2.0) | Active | 25.1 µM | Active | 31.6 µM | Active | –
C[C@H](NC(=O)[C@@H]1CCCN1C(=O)OC(C)(C)C)C(=O)N[C@@H](Cc1ccccc1)C(=O)NO (HELM PEPTIDE1{[CC(C)(C)OC(=O)[*:2]].P.A.F.[ON[*:1]]}$$$$V2.0) | Active | 79.4 µM | Active | 25.1 µM | Active | –
CNC(=O)[C@@H](NC(=O)[C@H](CC(C)C)[C@H](O)C(=O)NO)C(C)(C)C [MARIMASTAT] | – | – | – | 79.4 µM | – | –
COC(=O)[C@@H]1CCCN1C(=O)[C@H](C)CP(=O)(O)[C@H](Cc1ccccc1)NC(=O)[C@H](CCCCN)NC(=O)[C@@H]1CCCN1C(=O)OCc1ccccc1 | – | – | – | – | – | > 500 µM
O=C(C[C@@H](CCCC1CCCCC1)c1nc(-c2cc(C(=O)O)ccn2)no1)NO | – | 20 µM | – | 39.8 µM | – | –
